Data reported in patent US11331364B2, “Use for JNK inhibitor molecules for treatment of various diseases” (Xigen Inflammation Ltd., priority 2014, dated 2022).
Square brackets hold non-standard residues; d marks the D form. Peptide text beside a SMILES is read from it.

How the values were obtained:
[1] = tested on: endotoxins-induced uveitis albino rat model; test: Endotoxins-induced uveitis (EIU), single intravenous injection, clinical scoring; format: in vivo; set-up: key to clinical score (mean±SEM) / clinical score, median: clinical ocular inflammation score per eye, 0 to 4; conditions: 24 h after LPS
Procedure: The anti-inflammatory potency of the JNK inhibitor of SEQ ID NO: 172 was tested in albino rats following intravenous administration (EIU/LPS model). The aim of this study was to determine the effects of single intravenous injections of SEQ ID NO: 172 (0.015, 0.18, and 1.80 mg/kg) on the inflammatory response in an endotoxins-induced uveitis albino rat model and to compare these affects to those obtained with prior art JNK inhibitor of SEQ ID NO: 197 (2 mg/kg). As a further control served phosphate sodic dexamethasone (“reference”) and vehicle (0.9% NaCl).
Sixty (60) male Lewis rats were randomly divided into six (6) groups often (10) animals each. 0.9% NaCl (vehicle, “control”), SEQ ID NO: 197 at 2 mg/kg and SEQ ID NO: 172 at three concentrations (1.80 mg/kg, 0.18 mg/kg and 0.015 mg/kg) were administered by intravenous injection just before EIU induction (on the day of induction). Accordingly, phosphate sodic dexamethasone (20 Dg/eye, 5 μl; “reference”) was administered by a single sub-conjunctival injection in both eyes just before EIU induction (on the day of induction). EIU was induced by footpad injection of lipopolysaccharide (LPS, 1 mg/kg). 24 hours after LPS injection, inflammatory response was evaluated by clinical scoring.
The intensity of clinical ocular inflammation was scored on a scale from 0 to 4 for each eye: […]

[2] = tested on: mouse model of scopolamine-induced dry eye; test: Scopolamine-induced dry eye, topical ocular TID 21 days (TBUT, PRTT, histopathology); format: in vivo; conditions: for Mean PRTT AUC: Day 7-21, in mm·day (unit assumed); for Mean Calculated TBUT AUC: Day 7 to Day 21, in s·day (unit assumed)
Procedure: The objective of this study was to assess the effects of two different compounds, the all-D-retro-inverso JNK-inhibitor (poly-)peptide of SEQ ID NO: 197 and the JNK inhibitor (poly-)peptide of SEQ ID NO: 172, at three dose levels in a mouse model of scopolamine-induced dry eye.
The peptides of SEQ ID NO: 197 and SEQ ID NO: 172 were tested for efficacy in this murine model of dry eye. The peptides were both tested at a low, medium and a high dose. […] The vehicle, which also served as the negative control, was 0.9% Sodium Chloride for Injection USP.
The study consisted of a total of 9 groups of female C57BL/6 mice, comprising 8 groups of 12 mice each and an additional group of 4 mice. Bilateral short-term dry eye was induced by a combination of scopolamine hydrobromide (Sigma-Aldrich Corp., St. Louis, Mo.) injection (subcutaneous (SC), four times daily, 0.5 mg/dose, Days 0-21) and by exposing mice to the drying environment of constant air draft. […] Mice of Group 9 were maintained as un-induced, (no dry eye) untreated controls.
During the in-life (treatment) period, clinical observations were recorded once daily; slit-lamp examination (SLE) with corneal fluorescein staining, tear break-up time test (TBUT), and phenol red thread test (PRTT) were performed three times per week. Necropsies were performed on Day 22; eyes, eye lids, conjunctivae, and lacrimal glands were collected from both eyes of each animal. Tissues from the right eyes (oculus dexter, OD) were fixed and then evaluated microscopically. Tissues from the left eyes (oculus sinister; OS) were flash-frozen in liquid nitrogen and stored frozen at −80° C. for possible subsequent analyses.
The TBUT test was conducted three times weekly by measuring the time elapsed in seconds between a complete blink after application of fluorescein to the cornea and the appearance of the first random dry spot in the tear film. […] At least ninety seconds later, corneal epithelial damage was graded using a slit-lamp with a cobalt blue filter after another drop of 0.1% fluorescein was reapplied to the cornea; the cornea then was scored per the Draize ocular scale.
Tear production was measured three times a week in both eyes using PRTT test strips (Zone-Quick; Menicon, Nagoya, Japan). Prior to the first treatment of the day, a thread was applied to the lateral canthus of the conjunctival fornix of each eye for 30 seconds under slit-lamp biomicroscopy. Tear migration up the tread (i.e., the length of the wetted cotton thread) was measured using a millimeter scale.
At necropsy on Day 22, both eyes from each animal, including the globes, lacrimal glands, eyelids, and conjunctivae, were excised. The right eye and associated tissues were fixed by overnight submersion in modified Davidson's solution followed by transfer to 10% neutral buffered formalin (NBF). The fixed tissues of the right eye were dehydrated, embedded in paraffin, sectioned at 3 to 5-μm thicknesses, and slide-mounted tissues were stained with hematoxylin and eosin (H & E). Stained slides were evaluated via light microscopy. Detailed and complete histopathologic assessment was conducted on all parts of the eye, with at least two section levels being examined histopathologically for each right eye. Special attention was paid to the cornea, epithelia (including goblet cells) of the conjunctiva and cornea, as well as the lacrimal gland. These tissues were scored for injury based upon a 0-4 scale, with 0 being normal, 1 being minimal, 2 being mild, 3 being moderate, and 4 being severe. For each cornea, scores were based on corneal epithelium thickness, and corneal inflammation.

CC(C)C[C@H](NC(=O)[C@H](CC(N)=O)NC(=O)[C@H](CC(C)C)NC(=O)[C@@H](NC(=O)[C@@H](C)NC(=O)[C@@H]1CCCN1C(=O)[C@H](CCCNC(=N)N)NC(=O)[C@@H](CCCCN)NC(=O)[C@@H]1CCCN1C(=O)[C@H](CCCNC(=N)N)NC(=O)[C@@H](CCCNC(=N)N)NC(=O)[C@H](CCCNC(=N)N)NC(=O)[C@H](CCCNC(=N)N)NC(=O)[C@H](CCC(N)=O)NC(=O)[C@@H](CCCNC(=N)N)NC(=O)[C@H](CCCNC(=N)N)NC(=O)[C@H](CCCCN)NC(=O)[C@H](CCCCN)NC(=O)[C@H](N)CCCNC(=N)N)[C@@H](C)O)C(=O)N[C@H](Cc1ccccc1)C(N)=O [SEQ ID NO: 172, rKKRrQRRrRPkRPaTLNLf] (H-[dR]KKR[dR]QRR[dR]RP[dK]RP[dA]TLNL[dF]-NH2; N-terminus assumed)
clinical score (mean±SEM) ([1]; 0.015 mg/kg i.v.): 2.3±0.3 | clinical score, median ([1]; 0.015 mg/kg i.v.): 2 | reduction of inflammation vs vehicle ([1]; 0.015 mg/kg i.v.): 36% | clinical score (mean±SEM) ([1]; 0.18 mg/kg i.v.): 2.4±0.3 | clinical score, median ([1]; 0.18 mg/kg i.v.): 2 | reduction of inflammation vs vehicle ([1]; 0.18 mg/kg i.v.): 33% | clinical score (mean±SEM) ([1]; 1.80 mg/kg i.v.): 2.1±0.3 | clinical score, median ([1]; 1.80 mg/kg i.v.): 2 | reduction of severity of ocular inflammation vs vehicle ([1]; 1.80 mg/kg i.v.): 42% | TBUT mean nadir (Day 7) ([2]; 0.05% TID OU): 6.6 ± 0.4 s | TBUT mean peak (Day 9) ([2]; 0.05% TID OU): 8.0 ± 0.4 s | Mean PRTT AUC ([2]; 0.05% TID OU): 44.38 | Mean Calculated TBUT AUC ([2]; 0.05% TID OU): 102.98 | TBUT mean nadir (Day 7) ([2]; 0.2% TID OU): 6.7 ± 0.4 s | TBUT mean peak (Day 9) ([2]; 0.2% TID OU): 10.0 ± 0.7 s | histological cornea scores compared to cyclosporine group ([2]; 0.2% TID OU): not significantly different than the cyclosporine group scores | Mean PRTT AUC ([2]; 0.2% TID OU): 44.85 | Mean Calculated TBUT AUC ([2]; 0.2% TID OU): 119.08 | TBUT mean nadir (Day 7) ([2]; 0.6% TID OU): 6.7 ± 0.3 s | TBUT mean peak (Day 9) ([2]; 0.6% TID OU): 9.9 ± 0.8 s | histological cornea scores compared to cyclosporine group ([2]; 0.6% TID OU): not significantly different than the cyclosporine group scores | Mean PRTT AUC ([2]; 0.6% TID OU): 46.10 | Mean Calculated TBUT AUC ([2]; 0.6% TID OU): 119.31 | TBUT AUC compared with vehicle control ([2]; SEQ ID NO: 172 0.05%, 0.2% and 0.6%, cyclosporine 0.05%, Kruskal-Wallis): significant increases in the TBUT AUC | PRTT, aqueous tear production ([2]; low, mid and high dose levels): produced significantly more aqueous tears compared to vehicle-treated animals

CC(C)C[C@@H](NC(=O)[C@@H](Cc1ccccc1)NC(=O)[C@H]1CCCN1C(=O)[C@@H](CCC(N)=O)NC(=O)[C@H](NC(=O)[C@H]1CCCN1C(=O)[C@@H](CCCNC(=N)N)NC(=O)[C@@H](CO)NC(=O)[C@@H](CCC(N)=O)NC(=O)[C@H](N)CC(=O)O)C(C)C)C(=O)N[C@H](CC(N)=O)C(=O)N[C@H](CC(C)C)C(=O)N[C@@H](C(=O)N[C@@H](C(=O)N1CCC[C@@H]1C(=O)N[C@H](CCCNC(=N)N)C(=O)N[C@H](CCCCN)C(=O)N1CCC[C@@H]1C(=O)N[C@H](CCCNC(=N)N)C(=O)N1CCC[C@@H]1C(=O)N1CCC[C@@H]1C(=O)N[C@H](CCCNC(=N)N)C(=O)N[C@H](CCCNC(=N)N)C(=O)N[C@H](CCCNC(=N)N)C(=O)N[C@H](CCC(N)=O)C(=O)N[C@H](CCCNC(=N)N)C(=O)N[C@H](CCCNC(=N)N)C(=O)N[C@H](CCCCN)C(=O)N[C@H](CCCCN)C(=O)N[C@H](CCCNC(=N)N)C(=O)NCC(N)=O)[C@H](C)O)[C@H](C)O [SEQ ID NO: 197, dqsrpvqpflnlttprkprpprrrqrrkkrg, reference compound] (H-[dD][dQ][dS][dR][dP][dV][dQ][dP][dF][dL][dN][dL][dT][dT][dP][dR][dK][dP][dR][dP][dP][dR][dR][dR][dQ][dR][dR][dK][dK][dR]G-NH2)
clinical score (mean±SEM) ([1]; 2 mg/kg i.v.): 2.2±0.3 | clinical score, median ([1]; 2 mg/kg i.v.): 2 | decrease of EIU scores vs vehicle group ([1]; 2 mg/kg i.v.): 40% | corneal changes in comparison to other treatment groups ([2]; 0.06% TID OU): slightly more severe | Mean PRTT AUC ([2]; 0.06% TID OU): 39.96 | Mean Calculated TBUT AUC ([2]; 0.06% TID OU): 88.54 | Mean PRTT AUC ([2]; 0.25% TID OU): 42.79 | Mean Calculated TBUT AUC ([2]; 0.25% TID OU): 91.19 | histological cornea scores compared to cyclosporine group ([2]; 0.6% TID OU): not significantly different than the cyclosporine group scores | Mean PRTT AUC ([2]; 0.6% TID OU): 43.17 | Mean Calculated TBUT AUC ([2]; 0.6% TID OU): 89.98 | PRTT, aqueous tear production ([2]; low, mid and high dose levels): generally dose-dependent increases in PRTT | TBUT ([2]; low, mid and high dose levels): slight generally dose-dependent increases in TBUT
